From ChEMBL document CHEMBL4316626, “N-Acyl pyrazoles: Effective and tunable inhibitors of serine hydrolases” (Bioorg Med Chem, 2019)
Activity calls are given as the source filed them. The rule behind the calls is not given here.

Test system: not listed separately
Assay: Inhibition of recombinant rat FAAH deltaTM mutant expressed in Escherichia coli using 14C-labeled oleamide as substrate preincubated for 3 hrs followed by substrate addition and measured by TLC based Dixon-plot analysis
Settings: read-out: Ki(app)

Compound	Ki
O=C(N1CCN(Cc2ccc(OCc3ccccc3)cc2)CC1)n1cccn1	10 nM
O=C(NCc1ccc(OC(c2ccccc2)c2ccccc2)cc1)n1cccn1	140000 nM
Cc1cnn(C(=O)N2CCCCC2)c1	> 1000 nM
Cc1cnn(C(=O)NCc2ccc(OC(c3ccccc3)c3ccccc3)cc2)c1	220000 nM
N#Cc1cnn(C(=O)N2CCN(Cc3ccc(OCc4ccccc4)cc3)CC2)c1	0.16 nM
O=C(N1CCN(C(c2ccc(OCc3ccccc3)cc2)c2ccc(OCc3ccccc3)cc2)CC1)n1cccn1	73000 nM
Cc1cnn(C(=O)N2CCN(C(c3ccc(OCc4ccccc4)cc3)c3ccc(OCc4ccccc4)cc3)CC2)c1	110000 nM
N#Cc1cnn(C(=O)N2CCCN(Cc3ccc(OCc4ccccc4)cc3)CC2)c1	1.5 nM
O=C(NCc1ccc(OCc2ccccc2)cc1)n1cccn1	100 nM
N#Cc1cnn(C(=O)NCc2ccc(OCc3ccccc3)cc2)c1	17 nM
O=C(N1CCCCC1)n1cccn1	750 nM
Cc1cnn(C(=O)N2CCN(Cc3ccc4ccccc4c3)CC2)c1	130 nM
N#Cc1cnn(C(=O)N2CCN(Cc3ccc4ccccc4c3)CC2)c1	0.16 nM
Cc1cnn(C(=O)NCc2ccc(OCc3ccccc3)cc2)c1	300 nM
Cc1cnn(C(=O)N(C)CCN(C)Cc2cccc(OCc3ccccc3)c2)c1	35 nM

Molecular target: T1, Fatty-acid amide hydrolase 1 (Mus musculus, UniProt O08914)
T1 sequence (O08914 whole entry): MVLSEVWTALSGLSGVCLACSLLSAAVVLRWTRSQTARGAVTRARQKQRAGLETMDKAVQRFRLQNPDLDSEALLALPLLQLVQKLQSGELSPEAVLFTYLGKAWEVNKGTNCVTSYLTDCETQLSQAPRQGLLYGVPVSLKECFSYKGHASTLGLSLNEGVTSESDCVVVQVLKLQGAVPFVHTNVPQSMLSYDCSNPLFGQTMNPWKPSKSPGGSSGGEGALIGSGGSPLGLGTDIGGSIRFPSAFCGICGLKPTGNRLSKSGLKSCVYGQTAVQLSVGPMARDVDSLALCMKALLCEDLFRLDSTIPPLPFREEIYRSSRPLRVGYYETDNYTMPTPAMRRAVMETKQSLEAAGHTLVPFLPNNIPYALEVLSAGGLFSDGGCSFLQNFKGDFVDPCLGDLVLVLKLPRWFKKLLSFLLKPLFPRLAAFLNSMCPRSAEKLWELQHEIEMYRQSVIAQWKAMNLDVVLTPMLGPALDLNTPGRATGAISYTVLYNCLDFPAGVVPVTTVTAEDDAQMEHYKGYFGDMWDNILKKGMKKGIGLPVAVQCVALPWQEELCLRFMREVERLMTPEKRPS
Assay: Inhibition of FP-rhodamine probe binding to FAAH in mouse brain membrane proteome preincubated for 1 hr followed by FP-rhodamine addition and measured after 30 mins by SDS-PAGE based fluorescence assay
Format: cell membranes
Settings: not given

Compound	IC50
O=C(NCc1ccc(OC(c2ccccc2)c2ccccc2)cc1)n1cccn1	> 100000 nM
Cc1cnn(C(=O)N2CCCCC2)c1	2200 nM
Cc1cnn(C(=O)NCc2ccc(OC(c3ccccc3)c3ccccc3)cc2)c1	> 100000 nM
O=C(N1CCN(C(c2ccc(OCc3ccccc3)cc2)c2ccc(OCc3ccccc3)cc2)CC1)n1cccn1	> 100000 nM
Cc1cnn(C(=O)N2CCN(C(c3ccc(OCc4ccccc4)cc3)c3ccc(OCc4ccccc4)cc3)CC2)c1	> 100000 nM
Cc1cnn(C(=O)N(C)CCN(C)Cc2cccc(OCc3ccccc3)c2)c1	9000 nM

These reach a lower IC50. Values come first.

IC50	Compound
60 nM	O=C(N1CCN(Cc2ccc(OCc3ccccc3)cc2)CC1)n1cccn1
< 10 nM	N#Cc1cnn(C(=O)N2CCN(Cc3ccc(OCc4ccccc4)cc3)CC2)c1
< 10 nM	N#Cc1cnn(C(=O)N2CCCN(Cc3ccc(OCc4ccccc4)cc3)CC2)c1
800 nM	O=C(NCc1ccc(OCc2ccccc2)cc1)n1cccn1
60 nM	N#Cc1cnn(C(=O)NCc2ccc(OCc3ccccc3)cc2)c1
1000 nM	O=C(N1CCCCC1)n1cccn1
960 nM	Cc1cnn(C(=O)N2CCN(Cc3ccc4ccccc4c3)CC2)c1
< 10 nM	N#Cc1cnn(C(=O)N2CCN(Cc3ccc4ccccc4c3)CC2)c1
1200 nM	Cc1cnn(C(=O)NCc2ccc(OCc3ccccc3)cc2)c1

Molecular target: T2, Monoglyceride lipase (Mus musculus, UniProt O35678)
T2 sequence (O35678 whole entry): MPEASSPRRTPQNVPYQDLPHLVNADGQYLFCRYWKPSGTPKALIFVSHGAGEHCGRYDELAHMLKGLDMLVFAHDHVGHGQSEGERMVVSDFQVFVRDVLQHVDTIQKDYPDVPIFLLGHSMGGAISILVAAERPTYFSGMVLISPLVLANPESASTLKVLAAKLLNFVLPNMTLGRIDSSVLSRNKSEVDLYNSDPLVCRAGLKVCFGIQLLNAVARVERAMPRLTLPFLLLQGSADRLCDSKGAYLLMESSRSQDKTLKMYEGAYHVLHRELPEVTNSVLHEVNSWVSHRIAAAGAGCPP
Assay: Inhibition of FP-rhodamine probe binding to MGLL in mouse brain membrane proteome preincubated for 1 hr followed by FP-rhodamine addition and measured after 30 mins by SDS-PAGE based fluorescence assay
Format: cell membranes
Settings: not given

Compound	IC50
O=C(NCc1ccc(OC(c2ccccc2)c2ccccc2)cc1)n1cccn1	> 100000 nM
Cc1cnn(C(=O)N2CCCCC2)c1	9200 nM
Cc1cnn(C(=O)NCc2ccc(OC(c3ccccc3)c3ccccc3)cc2)c1	> 100000 nM
O=C(N1CCN(C(c2ccc(OCc3ccccc3)cc2)c2ccc(OCc3ccccc3)cc2)CC1)n1cccn1	3900 nM
Cc1cnn(C(=O)N2CCN(C(c3ccc(OCc4ccccc4)cc3)c3ccc(OCc4ccccc4)cc3)CC2)c1	2100 nM
Cc1cnn(C(=O)N(C)CCN(C)Cc2cccc(OCc3ccccc3)c2)c1	4100 nM

Second part, the compound after the results:

IC50	Compound
450 nM	O=C(N1CCN(Cc2ccc(OCc3ccccc3)cc2)CC1)n1cccn1
< 10 nM	N#Cc1cnn(C(=O)N2CCN(Cc3ccc(OCc4ccccc4)cc3)CC2)c1
10000 nM	N#Cc1cnn(C(=O)N2CCCN(Cc3ccc(OCc4ccccc4)cc3)CC2)c1
900 nM	O=C(NCc1ccc(OCc2ccccc2)cc1)n1cccn1
100 nM	N#Cc1cnn(C(=O)NCc2ccc(OCc3ccccc3)cc2)c1
6600 nM	O=C(N1CCCCC1)n1cccn1
920 nM	Cc1cnn(C(=O)N2CCN(Cc3ccc4ccccc4c3)CC2)c1
55 nM	N#Cc1cnn(C(=O)N2CCN(Cc3ccc4ccccc4c3)CC2)c1
1000 nM	Cc1cnn(C(=O)NCc2ccc(OCc3ccccc3)cc2)c1

Molecular target: T3, Monoacylglycerol lipase ABHD6 (Mus musculus, UniProt Q8R2Y0)
T3 sequence (Q8R2Y0 whole entry): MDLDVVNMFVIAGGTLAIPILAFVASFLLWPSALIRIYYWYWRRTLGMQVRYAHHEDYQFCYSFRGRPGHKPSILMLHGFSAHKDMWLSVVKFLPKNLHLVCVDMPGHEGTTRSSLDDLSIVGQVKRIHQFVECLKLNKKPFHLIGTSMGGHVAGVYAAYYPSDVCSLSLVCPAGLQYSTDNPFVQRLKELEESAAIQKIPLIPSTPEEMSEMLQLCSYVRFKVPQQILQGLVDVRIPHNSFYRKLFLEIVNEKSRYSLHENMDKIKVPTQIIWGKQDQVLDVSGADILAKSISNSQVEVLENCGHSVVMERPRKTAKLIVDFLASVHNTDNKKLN
Assay: Inhibition of FP-rhodamine probe binding to ABHD6 in mouse brain membrane proteome preincubated for 1 hr followed by FP-rhodamine addition and measured after 30 mins by SDS-PAGE based fluorescence assay
Format: cell membranes
Settings: not given

Compound	IC50
Cc1cnn(C(=O)N2CCCCC2)c1	1100 nM
O=C(N1CCN(C(c2ccc(OCc3ccccc3)cc2)c2ccc(OCc3ccccc3)cc2)CC1)n1cccn1	> 100000 nM
Cc1cnn(C(=O)N2CCN(C(c3ccc(OCc4ccccc4)cc3)c3ccc(OCc4ccccc4)cc3)CC2)c1	> 100000 nM
Cc1cnn(C(=O)N(C)CCN(C)Cc2cccc(OCc3ccccc3)c2)c1	8300 nM

The remaining lines, values ahead:

IC50	Compound
220 nM	O=C(N1CCN(Cc2ccc(OCc3ccccc3)cc2)CC1)n1cccn1
< 10 nM	N#Cc1cnn(C(=O)N2CCN(Cc3ccc(OCc4ccccc4)cc3)CC2)c1
85 nM	N#Cc1cnn(C(=O)N2CCCN(Cc3ccc(OCc4ccccc4)cc3)CC2)c1
5000 nM	O=C(N1CCCCC1)n1cccn1
10 nM	Cc1cnn(C(=O)N2CCN(Cc3ccc4ccccc4c3)CC2)c1
< 10 nM	N#Cc1cnn(C(=O)N2CCN(Cc3ccc4ccccc4c3)CC2)c1

Molecular target: T4, Neutral cholesterol ester hydrolase 1 (Mus musculus, UniProt Q8BLF1)
T4 sequence (Q8BLF1 whole entry): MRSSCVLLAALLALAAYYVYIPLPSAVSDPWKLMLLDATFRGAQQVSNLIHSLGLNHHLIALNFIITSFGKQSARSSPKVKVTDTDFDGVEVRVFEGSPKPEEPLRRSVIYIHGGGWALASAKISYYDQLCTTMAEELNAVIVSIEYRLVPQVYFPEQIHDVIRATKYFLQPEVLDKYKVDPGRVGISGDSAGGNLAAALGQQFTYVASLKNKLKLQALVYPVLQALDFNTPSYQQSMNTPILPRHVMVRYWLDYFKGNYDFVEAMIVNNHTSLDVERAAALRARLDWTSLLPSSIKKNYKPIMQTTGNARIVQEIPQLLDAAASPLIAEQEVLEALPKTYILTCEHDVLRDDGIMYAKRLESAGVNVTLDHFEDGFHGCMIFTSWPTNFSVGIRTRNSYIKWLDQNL
Assay: Inhibition of FP-rhodamine probe binding to KIAA1363 in mouse brain membrane proteome preincubated for 1 hr followed by FP-rhodamine addition and measured after 30 mins by SDS-PAGE based fluorescence assay
Format: cell membranes
Settings: not given

Compound	IC50
O=C(NCc1ccc(OC(c2ccccc2)c2ccccc2)cc1)n1cccn1	> 100000 nM
Cc1cnn(C(=O)N2CCCCC2)c1	> 100000 nM
Cc1cnn(C(=O)NCc2ccc(OC(c3ccccc3)c3ccccc3)cc2)c1	> 100000 nM
O=C(N1CCN(C(c2ccc(OCc3ccccc3)cc2)c2ccc(OCc3ccccc3)cc2)CC1)n1cccn1	> 100000 nM
Cc1cnn(C(=O)N2CCN(C(c3ccc(OCc4ccccc4)cc3)c3ccc(OCc4ccccc4)cc3)CC2)c1	> 100000 nM
Cc1cnn(C(=O)N(C)CCN(C)Cc2cccc(OCc3ccccc3)c2)c1	> 100000 nM

Next, values leading:

IC50	Compound
> 100000 nM	O=C(N1CCN(Cc2ccc(OCc3ccccc3)cc2)CC1)n1cccn1
> 100000 nM	N#Cc1cnn(C(=O)N2CCN(Cc3ccc(OCc4ccccc4)cc3)CC2)c1
> 100000 nM	N#Cc1cnn(C(=O)N2CCCN(Cc3ccc(OCc4ccccc4)cc3)CC2)c1
> 100000 nM	O=C(NCc1ccc(OCc2ccccc2)cc1)n1cccn1
> 100000 nM	N#Cc1cnn(C(=O)NCc2ccc(OCc3ccccc3)cc2)c1
> 100000 nM	O=C(N1CCCCC1)n1cccn1
> 100000 nM	Cc1cnn(C(=O)N2CCN(Cc3ccc4ccccc4c3)CC2)c1
> 100000 nM	N#Cc1cnn(C(=O)N2CCN(Cc3ccc4ccccc4c3)CC2)c1
> 100000 nM	Cc1cnn(C(=O)NCc2ccc(OCc3ccccc3)cc2)c1

Species on record: Rattus norvegicus
Assay: Time-dependent irreversible inhibition of recombinant rat FAAH deltaTM mutant expressed in Escherichia coli using 14C-labeled oleamide as substrate by TLC method
Settings: not given

TDI	Compound
Active	O=C(N1CCN(Cc2ccc(OCc3ccccc3)cc2)CC1)n1cccn1
Active	N#Cc1cnn(C(=O)N2CCN(Cc3ccc(OCc4ccccc4)cc3)CC2)c1

Species on record: Rattus norvegicus
Assay: Inhibition of recombinant rat FAAH deltaTM mutant expressed in Escherichia coli at 100 nM using 14C-labeled oleamide as substrate preincubated for 3 hrs by TLC method relative to control
Settings: not given

inhibition	Compound
> 70%	Cc1cnn(C(=O)N2CCN(Cc3ccc4ccccc4c3)CC2)c1

Species on record: Rattus norvegicus
Assay: Inhibition of recombinant rat FAAH deltaTM mutant expressed in Escherichia coli at 50 nM using 14C-labeled oleamide as substrate preincubated for 3 hrs by TLC method relative to control
Settings: not given

inhibition	Compound
> 70%	O=C(N1CCN(Cc2ccc(OCc3ccccc3)cc2)CC1)n1cccn1

Species on record: Rattus norvegicus
Assay: Inhibition of recombinant rat FAAH deltaTM mutant expressed in Escherichia coli at 10 nM using 14C-labeled oleamide as substrate preincubated for 3 hrs by TLC method relative to control
Settings: not given

inhibition	Compound
> 70%	N#Cc1cnn(C(=O)N2CCN(Cc3ccc(OCc4ccccc4)cc3)CC2)c1
> 70%	N#Cc1cnn(C(=O)N2CCN(Cc3ccc4ccccc4c3)CC2)c1

Species on record: Rattus norvegicus
Assay: Irreversible inhibition of recombinant rat FAAH deltaTM mutant expressed in Escherichia coli at 100 nM using 14C-labeled oleamide as substrate preincubated for 3 hrs followed by dialysis for 18 hrs
Settings: not given

inhibition	Compound
Active	Cc1cnn(C(=O)N2CCN(Cc3ccc4ccccc4c3)CC2)c1

Species on record: Rattus norvegicus
Assay: Irreversible inhibition of recombinant rat FAAH deltaTM mutant expressed in Escherichia coli at 50 nM using 14C-labeled oleamide as substrate preincubated for 3 hrs followed by dialysis for 18 hrs
Settings: not given

inhibition	Compound
Active	O=C(N1CCN(Cc2ccc(OCc3ccccc3)cc2)CC1)n1cccn1

Species on record: Rattus norvegicus
Assay: Irreversible inhibition of recombinant rat FAAH deltaTM mutant expressed in Escherichia coli at 10 nM using 14C-labeled oleamide as substrate preincubated for 3 hrs followed by dialysis for 18 hrs
Settings: not given

inhibition	Compound
Active	N#Cc1cnn(C(=O)N2CCN(Cc3ccc(OCc4ccccc4)cc3)CC2)c1
Active	N#Cc1cnn(C(=O)N2CCN(Cc3ccc4ccccc4c3)CC2)c1
